Laboratory results taken from patent US11377442B2, “Small molecule agonists and antagonists of NR2F6 activity” (ZANDER THERAPEUTICS, INC., priority 2016, dated 2022).
Read-outs that look alike come from different tables or passages of the source.

Legend:
Type in all cases: cell-based
Renilla = Renilla signal in NR2F6 agonist screening, cmpd/DMSO; conditions: Renilla, F4
NR2F6 = molecular target: T1, NR2F6 (Homo sapiens, UniProt P10588); assay: NR2F6 agonist screening, Firefly signal cmpd/DMSO
T1 construct: expressed in transfected cells; also transient transfection
T1 sequence (P10588 1-404): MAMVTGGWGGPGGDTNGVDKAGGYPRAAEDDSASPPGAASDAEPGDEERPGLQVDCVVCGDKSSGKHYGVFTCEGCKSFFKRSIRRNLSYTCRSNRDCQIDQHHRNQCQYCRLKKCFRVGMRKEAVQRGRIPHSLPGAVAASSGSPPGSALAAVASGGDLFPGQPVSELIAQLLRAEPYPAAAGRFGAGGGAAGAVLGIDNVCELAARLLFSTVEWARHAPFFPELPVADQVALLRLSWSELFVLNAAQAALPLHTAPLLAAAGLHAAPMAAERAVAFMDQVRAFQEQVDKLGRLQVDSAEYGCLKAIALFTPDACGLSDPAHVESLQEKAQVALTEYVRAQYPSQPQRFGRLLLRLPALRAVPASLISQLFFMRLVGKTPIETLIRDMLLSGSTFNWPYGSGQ

NR2F6 LBD = molecular target: T2, NR2F6 LBD (Homo sapiens, UniProt P10588); assay: NR2F6 LBD transient transfection; conditions: LBD
T2 construct: expressed in transfected cells
T2 sequence (P10588 165-393 limits assumed): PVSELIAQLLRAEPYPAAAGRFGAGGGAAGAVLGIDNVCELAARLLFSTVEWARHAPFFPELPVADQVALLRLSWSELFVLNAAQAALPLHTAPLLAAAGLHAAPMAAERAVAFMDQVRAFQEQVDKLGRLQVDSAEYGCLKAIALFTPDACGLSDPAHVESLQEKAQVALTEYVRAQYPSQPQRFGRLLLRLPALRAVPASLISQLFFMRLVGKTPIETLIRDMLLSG
Experimental: FIGS. 27A and 27B show NR2F6 and LBD transient transfection, respectively, for Compound D28. Higher concentrations were excluded due to lower signal (tox effect). FIGS. 27C and 27D show NR2F6 and LBD transient transfection at different concentrations for different compounds. 9 compounds were tested on LBD transfected cells (40, 10, 2 and 0.5 μM, 4 replicates). FIGS. 27E and 27F show toxicity of Compound D28. 9 compounds were tested for cytotoxicity on LBD transfected cells (40, 10, 2 and 0.5 μM, 4 replicates). […] Cytotoxicity normalized to DMSO is shown in FIG. 27F (0% cytotoxicity corresponds to DMSO signal, 100%—zero signal).
FIGS. 34A and 34B show NR2F6 LBD transient transfection for Compound E21. 9 compounds were tested on LBD transfected cells (40, 10, 2 and 0.5 μM, 4 replicates). FIGS. 34C and 34D show NR2F6 and LBD transient transfection at different concentrations for different compounds. 9 compounds were tested on LBD transfected cells (40, 10, 2 and 0.5 μM, 4 replicates). […] Cytotoxicity normalized to DMSO is shown in FIG. 34D (0% cytotoxicity corresponds to DMSO signal, 100%—zero signal). All compounds were tested at 5, 10, 25 and 50 uM in duplicates. Dog PBMC (1×10^6 cells/mL) were activated by 10 ng/mL PMA+500 ng/mL ionomycin. Data were normalized to controls with (100%)/without (0%) PMA+ionomycin activation.
FIGS. 39A and 39B show NR2F6 LBD transient transfection for Compound F1. 9 compounds were tested on LBD transfected cells (40, 10, 2 and 0.5 μM, 4 replicates). FIGS. 39C and 39D show toxicity of NR2F6 LBD transient transfection. 9 compounds were tested for cytotoxicity on LBD transfected cells (40, 10, 2 and 0.5 μM, 4 replicates). Tox effect causes lower signal compared to DMSO. Cytotoxicity normalized to DMSO is shown in FIG. 39D (0% cytotoxicity corresponds to DMSO signal, 100%—zero signal).

HEK293 pGL4 = assay: Firefly_pGL signal, cmpd/DMSO (pGL4 control cells); conditions: Homo sapiens
[1] = read-out: Renilla, F4, cmpd/DMSO (mean)
[2] = 1% FBS, read-out: Renilla, F4, 1% FBS, cmpd/DMSO (mean)
[3] = 10% FBS, read-out: Renilla, F4, 10% FBS, cmpd/DMSO (mean)
[4] = HEK293, 0.5 uM, pGL4, read-out: Firefly pGL4, cmpd/DMSO (mean)
[5] = HEK293, 2 uM, pGL4, read-out: Firefly pGL4, cmpd/DMSO (mean)
[6] = HEK293, 10 uM, pGL4, read-out: Firefly pGL4, cmpd/DMSO (mean)
[7] = HEK293, 40 uM, pGL4, read-out: Firefly pGL4, cmpd/DMSO (mean)
[8] = HEK293, pGL4, 1% FBS, 0.5 uM, read-out: Firefly, pGL4, 1% FBS, cmpd/DMSO (mean)
[9] = HEK293, pGL4, 1% FBS, 2 uM, read-out: Firefly, pGL4, 1% FBS, cmpd/DMSO (mean)
[10] = HEK293, pGL4, 1% FBS, 10 uM, read-out: Firefly, pGL4, 1% FBS, cmpd/DMSO (mean)
[11] = HEK293, pGL4, 1% FBS, 40 uM, read-out: Firefly, pGL4, 1% FBS, cmpd/DMSO (mean)
[12] = HEK293, pGL4, 10% FBS, 0.5 uM, read-out: Firefly, pGL4, 10% FBS, cmpd/DMSO (mean)
[13] = HEK293, pGL4, 10% FBS, 2 uM, read-out: Firefly, pGL4, 10% FBS, cmpd/DMSO (mean)
[14] = HEK293, pGL4, 10% FBS, 10 uM, read-out: Firefly, pGL4, 10% FBS, cmpd/DMSO (mean)
[15] = HEK293, pGL4, 10% FBS, 40 uM, read-out: Firefly, pGL4, 10% FBS, cmpd/DMSO (mean)

CC(C)CCN[C@H]1CS(=O)(=O)C[C@@H]1S(=O)(=O)c1cccs1 [Compound D110] gave a fold induction at 0.5 µM (Renilla; [1]) of 1.1, a fold induction at 2 µM (Renilla; [1]) of 1.1 and a fold induction at 10 µM (Renilla; [1]) of 1.3. The fold induction at 40 µM (Renilla; [1]) was 1.4, the fold induction at 0.5 µM (Renilla; [2]) was 1 and the fold induction at 2 µM (Renilla; [2]) was 1.1. The fold induction at 10 µM (Renilla; [2]) was 1.5, the fold induction at 40 µM (Renilla; [2]) was 1.5 and the fold induction at 0.5 µM (Renilla; [3]) was 1. It also gave a fold induction at 2 µM (Renilla; [3]) of 1, a fold induction at 10 µM (Renilla; [3]) of 1.5 and a fold induction at 40 µM (Renilla; [3]) of 2.4. The “Firefly F4, cmpd/DMSO (mean)” value (NR2F6; 0.5 uM) was 1.7, the “Firefly F4, cmpd/DMSO (mean)” value (NR2F6; 2 uM) was 1.9 and the “Firefly F4, cmpd/DMSO (mean)” value (NR2F6; 10 uM) was 3.5. The “Firefly F4, cmpd/DMSO (mean)” value (NR2F6; 40 uM) was 1.4, the “F4, Firefly/Renilla for S/B(F4) > 3” value (NR2F6; 1% FBS, 10 uM) was 2.5 and the “Firefly, F4/pGL4 for S/B(F4) > 3” value (NR2F6; 1% FBS, 10 uM) was 2.3. For the same compound, the “F4, Firefly/Renilla for S/B(F4) > 3” value (NR2F6; 10% FBS, 40 uM) was 2.5, the “Firefly, F4/pGL4 for S/B(F4) > 3” value (NR2F6; 10% FBS, 40 uM) was 2.3 and the “Firefly, F4, 1% FBS, cmpd/DMSO (mean)” value (NR2F6; 1% FBS, 0.5 uM) was 0.8. The “Firefly, F4, 1% FBS, cmpd/DMSO (mean)” value (NR2F6; 1% FBS, 2 uM) was 1.4, the “Firefly, F4, 1% FBS, cmpd/DMSO (mean)” value (NR2F6; 1% FBS, 10 uM) was 3.8 and the “Firefly, F4, 1% FBS, cmpd/DMSO (mean)” value (NR2F6; 1% FBS, 40 uM) was 0.8. The “Firefly, F4, 10% FBS, cmpd/DMSO (mean)” value (NR2F6; 10% FBS, 0.5 uM) was 1.3, the “Firefly, F4, 10% FBS, cmpd/DMSO (mean)” value (NR2F6; 10% FBS, 2 uM) was 1.0 and the “Firefly, F4, 10% FBS, cmpd/DMSO (mean)” value (NR2F6; 10% FBS, 10 uM) was 2.4. The “Firefly, F4, 10% FBS, cmpd/DMSO (mean)” value (NR2F6; 10% FBS, 40 uM) was 5.9, the “Firefly LBD, cmpd/DMSO (mean)” value (NR2F6 LBD; 0.5 uM) was 1.1 and the “Firefly LBD, cmpd/DMSO (mean)” value (NR2F6 LBD; 2 uM) was 1.4. For the same compound, the “Firefly LBD, cmpd/DMSO (mean)” value (NR2F6 LBD; 10 uM) was 3.0, the “Firefly LBD, cmpd/DMSO (mean)” value (NR2F6 LBD; 40 uM) was 0.8 and the fold induction at 0.5 µM (HEK293 pGL4; [4]) was 1.2. It also gave a fold induction at 2 µM (HEK293 pGL4; [5]) of 1.4, a fold induction at 10 µM (HEK293 pGL4; [6]) of 3.3 and a fold induction at 40 µM (HEK293 pGL4; [7]) of 0.7. For the same compound, the fold induction at 0.5 µM (HEK293 pGL4; [8]) was 1, the fold induction at 2 µM (HEK293 pGL4; [9]) was 1.2 and the fold induction at 10 µM (HEK293 pGL4; [10]) was 1.7. It also gave a fold induction at 40 µM (HEK293 pGL4; [11]) of 0.8, a fold induction at 0.5 µM (HEK293 pGL4; [12]) of 1.2 and a fold induction at 2 µM (HEK293 pGL4; [13]) of 1.2. For the same compound, the fold induction at 10 µM (HEK293 pGL4; [14]) was 1.8 and the fold induction at 40 µM (HEK293 pGL4; [15]) was 2.6.
In the case of O=S1(=O)C[C@H](NC2CCCCC2)[C@@H](S(=O)(=O)c2ccccc2)C1 [Compound D111], the fold induction at 0.5 µM (Renilla; [1]) is reported as 1, the fold induction at 2 µM (Renilla; [1]) is reported as 1 and the fold induction at 10 µM (Renilla; [1]) is reported as 1.1. The fold induction at 40 µM (Renilla; [1]) was 1.4, the fold induction at 0.5 µM (Renilla; [2]) was 1.1 and the fold induction at 2 µM (Renilla; [2]) was 1.1. For the same compound, the fold induction at 10 µM (Renilla; [2]) was 1.3, the fold induction at 40 µM (Renilla; [2]) was 1.7 and the fold induction at 0.5 µM (Renilla; [3]) was 1.1. It also gave a fold induction at 2 µM (Renilla; [3]) of 1.1, a fold induction at 10 µM (Renilla; [3]) of 1.2 and a fold induction at 40 µM (Renilla; [3]) of 1.8. The “Firefly F4, cmpd/DMSO (mean)” value (NR2F6; 0.5 uM) was 1.1, the “Firefly F4, cmpd/DMSO (mean)” value (NR2F6; 2 uM) was 1.1 and the “Firefly F4, cmpd/DMSO (mean)” value (NR2F6; 10 uM) was 2.0. For the same compound, the “Firefly F4, cmpd/DMSO (mean)” value (NR2F6; 40 uM) was 2.7, the “F4, Firefly/Renilla for S/B(F4) > 3” value (NR2F6; 10% FBS, 40 uM) was 2.0 and the “Firefly, F4/pGL4 for S/B(F4) > 3” value (NR2F6; 10% FBS, 40 uM) was 2.7. The “Firefly, F4, 1% FBS, cmpd/DMSO (mean)” value (NR2F6; 1% FBS, 0.5 uM) was 1.0, the “Firefly, F4, 1% FBS, cmpd/DMSO (mean)” value (NR2F6; 1% FBS, 2 uM) was 1.1 and the “Firefly, F4, 1% FBS, cmpd/DMSO (mean)” value (NR2F6; 1% FBS, 10 uM) was 1.6. The “Firefly, F4, 1% FBS, cmpd/DMSO (mean)” value (NR2F6; 1% FBS, 40 uM) was 2.1, the “Firefly, F4, 10% FBS, cmpd/DMSO (mean)” value (NR2F6; 10% FBS, 0.5 uM) was 1.6 and the “Firefly, F4, 10% FBS, cmpd/DMSO (mean)” value (NR2F6; 10% FBS, 2 uM) was 1.6. For the same compound, the “Firefly, F4, 10% FBS, cmpd/DMSO (mean)” value (NR2F6; 10% FBS, 10 uM) was 1.1, the “Firefly, F4, 10% FBS, cmpd/DMSO (mean)” value (NR2F6; 10% FBS, 40 uM) was 3.6 and the “Firefly LBD, cmpd/DMSO (mean)” value (NR2F6 LBD; 0.5 uM) was 1.1. For the same compound, the “Firefly LBD, cmpd/DMSO (mean)” value (NR2F6 LBD; 2 uM) was 1.4, the “Firefly LBD, cmpd/DMSO (mean)” value (NR2F6 LBD; 10 uM) was 1.6 and the “Firefly LBD, cmpd/DMSO (mean)” value (NR2F6 LBD; 40 uM) was 1.9. The fold induction at 0.5 µM (HEK293 pGL4; [4]) was 0.9, the fold induction at 2 µM (HEK293 pGL4; [5]) was 1.4 and the fold induction at 10 µM (HEK293 pGL4; [6]) was 1.5. For the same compound, the fold induction at 40 µM (HEK293 pGL4; [7]) was 1.8, the fold induction at 0.5 µM (HEK293 pGL4; [8]) was 1 and the fold induction at 2 µM (HEK293 pGL4; [9]) was 1.2. It also gave a fold induction at 10 µM (HEK293 pGL4; [10]) of 1.2, a fold induction at 40 µM (HEK293 pGL4; [11]) of 1.2 and a fold induction at 0.5 µM (HEK293 pGL4; [12]) of 1.2. It also gave a fold induction at 2 µM (HEK293 pGL4; [13]) of 1.2, a fold induction at 10 µM (HEK293 pGL4; [14]) of 1.3 and a fold induction at 40 µM (HEK293 pGL4; [15]) of 1.3.
